From patent publication US10829796B2, “Bacteria identification and antimicrobial susceptibility test” (priority 2015, dated 2020)

Columns and labels:
Assay type in all cases: cell-based
Staphylococcus aureus = experiment: Antibiotic susceptibility testing (colour of media), spiked milk; details: bacteria sample 5c
Experimental: Tables 36 to 38 which follow show further examples of antibiotic susceptibility testing performed in accordance with the present invention. Table 36, antibiotic susceptibility testing of Staphylococcus aureus in Mueller Hinton and Tryptic Soy Broth at pre-incubation and at between 15-24 h. Tables 37 and 38, antimicrobial susceptibility testing of Streptococcus uberis and E. coli with the addition of gram negative specific antibiotic aztreonam. Tables 38 to 49 show further examples of antibiotic susceptibility testing and the outcomes are aligned with the described inventions.

Streptococcus uberis [1] = experiment: Colour change of enrichment media with pH indicator, bacteria in milk (stabilizing agent); details: excess concentration (Table 4e, 0.04%) in presence of milk; all inoculums investigated
Text: The present invention overcomes these limitations through inclusion of one or more stabilizing agents which suppresses the potential inhibitory effect of the colour based pH indicator. As such, increased concentrations of the colour based pH indicator (e.g. phenol red) may be used in the test, thereby achieving stability in the colour change associated with bacteria growth. An example of a stabilizing agent according to the present invention is milk.
In this Example, liquid culture media is used which allows early and easy identification of susceptible antimicrobials to support decision of antimicrobial selection to treat bacterial infections. It also allows the detection of bacteria such as gram+ and/or gram-bacteria in clinical samples are present and/or allows estimation of the inoculum from kinetic analyses of colour change. The base of this liquid culture medium is a general purpose liquid enrichment medium for example tryptic soy broth (Soybean-Casein Digest Medium) but could also be Mueller Hinton broth. This TSB media has excess concentration of a pH indicator such as phenol red and/or bromocresol purple and milk. […] Colorimetric analyses can performed by the naked eye or by an optical reader for example via CCD camera chip or photo diode. […]

Streptococcus uberis [2] = experiment: Group D Streptococci identification, esculin/ferric citrate in TSB (blackening = growth), bacteria in milk; details: TSB containing 0.5% esculin and 0.25% ferric citrate + 80 uL spiked milk; 100 ug/ml aztreonam and/or 0.5 mg/mL phenol red
Experimental: By way of illustration, the same experiment was conducted as above, only this time using clinical milk samples obtained from a bovine animal suspect of being infected with mastitis.
However, Applicant has discovered that increased amounts of esculin and ferric citrate may be used in milk derived clinical samples. For example, at concentrations of at least 2% esculin and 1% ferric citrate, the growth of Streptococcus uberis is not inhibited.
Note, in the experiments above, the clinical sample tested was milk obtained from a bovine animal suspected of being infected by mastitis. If a non-milk clinical sample were to be tested, then inclusion of a stabilizing agent (e.g. milk in the form of a liquid or powder) would be required in order to suppress the growth inhibitory effect of esculin and ferric citrate at the higher concentrations used according to this invention.
Applicant further discovered that TSB containing 0.5% esculin and 0.25% ferric citrate and 80 uL of spiked Streptococcus uberis milk sample which also contained 100 ug/ml aztreonam concentration (antibiotic which has activity against many gram-bacteria such as E. coli) and/or in combination with 0.5 mg/mL phenol red led to easy detectable colour changes. No inhibition of Streptococcus uberis due to phenol red or aztreonam was detected.

[3] = T = 0 hours (pre incubation), drug 0.01 μg/ml, Mueller Hinton (70 ul composition 26)
[4] = T = 0 hours (pre incubation), drug 0.05 μg/ml, Mueller Hinton (70 ul composition 26)
[5] = T = 0 hours (pre incubation), drug 0.1 μg/ml, Mueller Hinton (70 ul composition 26)
[6] = T = 0 hours (pre incubation), drug 0.5 μg/ml, Mueller Hinton (70 ul composition 26)
[7] = T = 0 hours (pre incubation), drug 1 μg/ml, Mueller Hinton (70 ul composition 26)
[8] = T = 0 hours (pre incubation), drug 5 μg/ml, Mueller Hinton (70 ul composition 26)
[9] = T = 0 hours (pre incubation), drug 10 μg/ml, Mueller Hinton (70 ul composition 26)
[10] = T = 0 hours (pre incubation), drug 50 μg/ml, Mueller Hinton (70 ul composition 26)
[11] = T = 0 hours (pre incubation), drug 100 μg/ml, Mueller Hinton (70 ul composition 26)
[12] = T = 0 hours (pre incubation), drug 500 μg/ml, Mueller Hinton (70 ul composition 26)
[13] = T = 15-24 h at 35° C., drug 0.01 μg/ml, Mueller Hinton (70 ul composition 26)
[14] = T = 15-24 h at 35° C., drug 0.05 μg/ml, Mueller Hinton (70 ul composition 26)
[15] = T = 15-24 h at 35° C., drug 0.1 μg/ml, Mueller Hinton (70 ul composition 26)
[16] = T = 15-24 h at 35° C., drug 0.5 μg/ml, Mueller Hinton (70 ul composition 26)
[17] = T = 15-24 h at 35° C., drug 1 μg/ml, Mueller Hinton (70 ul composition 26)
[18] = T = 15-24 h at 35° C., drug 5 μg/ml, Mueller Hinton (70 ul composition 26)
[19] = T = 15-24 h at 35° C., drug 10 μg/ml, Mueller Hinton (70 ul composition 26)
[20] = T = 15-24 h at 35° C., drug 50 μg/ml, Mueller Hinton (70 ul composition 26)
[21] = T = 15-24 h at 35° C., drug 100 μg/ml, Mueller Hinton (70 ul composition 26)
[22] = T = 15-24 h at 35° C., drug 500 μg/ml, Mueller Hinton (70 ul composition 26)

SMILES: CC1=C(C(=O)O)N2C(=O)[C@@H](NC(=O)[C@H](N)c3ccccc3)[C@H]2SC1 [Cephalexin]
- Colour of media (Staphylococcus aureus; [3]): red
- Colour of media (Staphylococcus aureus; [4]): red
- Colour of media (Staphylococcus aureus; [5]): red
- Colour of media (Staphylococcus aureus; [6]): red
- Colour of media (Staphylococcus aureus; [7]): red
- Colour of media (Staphylococcus aureus; [8]): red
- Colour of media (Staphylococcus aureus; [9]): red
- Colour of media (Staphylococcus aureus; [10]): red
- Colour of media (Staphylococcus aureus; [11]): red
- Colour of media (Staphylococcus aureus; [12]): red
- Colour of media (Staphylococcus aureus; [13]): yellow
- Colour of media (Staphylococcus aureus; [14]): yellow
- Colour of media (Staphylococcus aureus; [15]): yellow
- Colour of media (Staphylococcus aureus; [16]): yellow
- Colour of media (Staphylococcus aureus; [17]): red
- Colour of media (Staphylococcus aureus; [18]): red
- Colour of media (Staphylococcus aureus; [19]): red
- Colour of media (Staphylococcus aureus; [20]): red
- Colour of media (Staphylococcus aureus; [21]): red
- Colour of media (Staphylococcus aureus; [22]): red

SMILES: NC[C@@H]1O[C@H](O[C@H]2[C@@H](O)[C@H](O[C@@H]3[C@@H](O)[C@H](N)C[C@H](N)[C@H]3O[C@H]3O[C@H](CN)[C@@H](O)[C@H](O)[C@H]3N)O[C@@H]2CO)[C@H](N)[C@@H](O)[C@@H]1O [Neomycin]
- Colour of media (Staphylococcus aureus; [3]): red
- Colour of media (Staphylococcus aureus; [4]): red
- Colour of media (Staphylococcus aureus; [5]): red
- Colour of media (Staphylococcus aureus; [6]): red
- Colour of media (Staphylococcus aureus; [7]): red
- Colour of media (Staphylococcus aureus; [8]): red
- Colour of media (Staphylococcus aureus; [9]): red
- Colour of media (Staphylococcus aureus; [10]): red
- Colour of media (Staphylococcus aureus; [11]): red
- Colour of media (Staphylococcus aureus; [12]): red
- Colour of media (Staphylococcus aureus; [13]): yellow
- Colour of media (Staphylococcus aureus; [14]): yellow
- Colour of media (Staphylococcus aureus; [15]): yellow
- Colour of media (Staphylococcus aureus; [16]): yellow
- Colour of media (Staphylococcus aureus; [17]): yellow
- Colour of media (Staphylococcus aureus; [18]): red
- Colour of media (Staphylococcus aureus; [19]): red
- Colour of media (Staphylococcus aureus; [20]): red
- Colour of media (Staphylococcus aureus; [21]): red
- Colour of media (Staphylococcus aureus; [22]): red

SMILES: Cc1cc(C2(c3cc(C)c(O)c(Br)c3)OS(=O)(=O)c3ccccc32)cc(Br)c1O [bromocresol purple]
- Growth inhibition (Streptococcus uberis [1]): does not inhibit growth

SMILES: CN[C@@H]1[C@H](O[C@H]2[C@H](O[C@H]3[C@H](O)[C@@H](O)[C@H](NC(=N)N)[C@@H](O)[C@@H]3NC(=N)N)O[C@@H](C)[C@]2(O)CO)O[C@@H](CO)[C@H](O)[C@H]1O [Dihydrostreptomycin]
- Colour of media (Staphylococcus aureus; T = 0 hours (pre incubation), drug 0.01 μg/ml, Tryptic Soy (70 ul composition 2c)): red
- Colour of media (Staphylococcus aureus; T = 0 hours (pre incubation), drug 0.05 μg/ml, Tryptic Soy (70 ul composition 2c)): red
- Colour of media (Staphylococcus aureus; T = 0 hours (pre incubation), drug 0.1 μg/ml, Tryptic Soy (70 ul composition 2c)): red
- Colour of media (Staphylococcus aureus; T = 0 hours (pre incubation), drug 0.5 μg/ml, Tryptic Soy (70 ul composition 2c)): red
- Colour of media (Staphylococcus aureus; T = 0 hours (pre incubation), drug 1 μg/ml, Tryptic Soy (70 ul composition 2c)): red
- Colour of media (Staphylococcus aureus; T = 0 hours (pre incubation), drug 5 μg/ml, Tryptic Soy (70 ul composition 2c)): red
- Colour of media (Staphylococcus aureus; T = 0 hours (pre incubation), drug 10 μg/ml, Tryptic Soy (70 ul composition 2c)): red
- Colour of media (Staphylococcus aureus; T = 0 hours (pre incubation), drug 50 μg/ml, Tryptic Soy (70 ul composition 2c)): red
- Colour of media (Staphylococcus aureus; T = 0 hours (pre incubation), drug 100 μg/ml, Tryptic Soy (70 ul composition 2c)): red
- Colour of media (Staphylococcus aureus; T = 0 hours (pre incubation), drug 500 μg/ml, Tryptic Soy (70 ul composition 2c)): red
- Colour of media (Staphylococcus aureus; T = 15-24 h at 35° C., drug 0.01 μg/ml, Tryptic Soy (70 ul composition 2c)): yellow
- Colour of media (Staphylococcus aureus; T = 15-24 h at 35° C., drug 0.05 μg/ml, Tryptic Soy (70 ul composition 2c)): yellow
- Colour of media (Staphylococcus aureus; T = 15-24 h at 35° C., drug 0.1 μg/ml, Tryptic Soy (70 ul composition 2c)): yellow
- Colour of media (Staphylococcus aureus; T = 15-24 h at 35° C., drug 0.5 μg/ml, Tryptic Soy (70 ul composition 2c)): yellow
- Colour of media (Staphylococcus aureus; T = 15-24 h at 35° C., drug 1 μg/ml, Tryptic Soy (70 ul composition 2c)): yellow
- Colour of media (Staphylococcus aureus; T = 15-24 h at 35° C., drug 5 μg/ml, Tryptic Soy (70 ul composition 2c)): yellow
- Colour of media (Staphylococcus aureus; T = 15-24 h at 35° C., drug 10 μg/ml, Tryptic Soy (70 ul composition 2c)): yellow
- Colour of media (Staphylococcus aureus; T = 15-24 h at 35° C., drug 50 μg/ml, Tryptic Soy (70 ul composition 2c)): yellow
- Colour of media (Staphylococcus aureus; T = 15-24 h at 35° C., drug 100 μg/ml, Tryptic Soy (70 ul composition 2c)): red
- Colour of media (Staphylococcus aureus; T = 15-24 h at 35° C., drug 500 μg/ml, Tryptic Soy (70 ul composition 2c)): red

SMILES: O=S1(=O)OC(c2ccc(O)cc2)(c2ccc(O)cc2)c2ccccc21 [phenol red]
- Inhibition of Streptococcus uberis (Streptococcus uberis [2]): No inhibition
